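A five-concentration, 48-hour dose response in 96-well plates underlies each endpoint, interpolated linearly between surrounding concentrations. TGI: concentration producing complete growth inhibition.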
Key:
Assay in all cases: NCI tumour cell line growth inhibition, 48 h
EKVX NSCLC = tested on: EKVX NSCLC
MDA-MB-435 = tested on: MDA-MB-435
SK-MEL-2 melanoma = tested on: SK-MEL-2 melanoma
SN12C renal = tested on: SN12C renal
CCRF-CEM leukemia = tested on: CCRF-CEM leukemia
HCT-116 colon = tested on: HCT-116 colon
SW-620 colon = tested on: SW-620 colon
NCI-H226 lung = tested on: NCI-H226 lung
DU-145 prostate = tested on: DU-145 prostate
MALME-3M melanoma = tested on: MALME-3M melanoma

Structure (SMILES) | TGI (EKVX NSCLC) | TGI (MDA-MB-435) | TGI (SK-MEL-2 melanoma) | TGI (SN12C renal) | TGI (CCRF-CEM leukemia) | TGI (HCT-116 colon) | TGI (SW-620 colon) | TGI (NCI-H226 lung) | TGI (DU-145 prostate) | TGI (MALME-3M melanoma)
CCc1ccc2oc(-c3cc(O)c(-c4nc5cc(CC)ccc5o4)cc3O)nc2c1 | > 100 µM | > 100 µM | > 100 µM | > 100 µM | > 100 µM | > 100 µM | > 100 µM | > 100 µM | > 100 µM | –
CCCSc1ccc2[nH]c(/N=C/c3ccco3)cc2c1 | 68.8 µM | > 100 µM | 59 µM | > 100 µM | 80 µM | > 100 µM | > 100 µM | – | > 100 µM | > 100 µM
Cc1cc(C)cc(Nc2cc(=O)[nH]c(=O)[nH]2)c1 | > 100 µM | > 100 µM | – | > 100 µM | > 100 µM | > 100 µM | > 100 µM | > 100 µM | > 100 µM | > 100 µM
O=C1c2ccccc2C(=O)N1Cc1ccccc1-c1c2nc(c(-c3ccccc3CN3C(=O)c4ccccc4C3=O)c3ccc([nH]3)c(-c3ccccc3CN3C(=O)c4ccccc4C3=O)c3nc(c(-c4ccccc4CN4C(=O)c5ccccc5C4=O)c4ccc1[nH]4)C=C3)C=C2 | – | – | > 100 µM | > 100 µM | > 100 µM | > 100 µM | > 100 µM | > 100 µM | – | > 100 µM
CCCCCC(=O)NC(=S)Nc1nn[nH]n1 | > 100 µM | > 100 µM | > 100 µM | > 100 µM | > 100 µM | > 100 µM | > 100 µM | – | > 100 µM | > 100 µM
CC(=O)C1=C(C)NC2C=CC=CN12 (centres undefined) | > 100 µM | – | > 100 µM | > 100 µM | > 100 µM | > 100 µM | > 100 µM | > 100 µM | – | > 100 µM
Cc1cn(C(Cc2ccccc2)OCCO)c(=O)[nH]c1=O (centres undefined) | > 100 µM | > 100 µM | > 100 µM | > 100 µM | > 100 µM | > 100 µM | > 100 µM | > 100 µM | > 100 µM | –
C1CNCCNCCN1 | > 100 µM | > 100 µM | > 100 µM | > 100 µM | > 100 µM | > 100 µM | > 100 µM | > 100 µM | > 100 µM | –
CNC(=O)Oc1ccc(-c2cn3cc(OC(=O)NC)ccc3n2)cc1 | > 100 µM | > 100 µM | > 100 µM | > 100 µM | 52.9 µM | > 100 µM | > 100 µM | > 100 µM | > 100 µM | –
Cc1[nH]c(=O)[nH]c(=O)c1/C=C/C(=O)O | > 1000 µM | – | > 1000 µM | > 1000 µM | > 1000 µM | > 1000 µM | > 1000 µM | > 1000 µM | – | > 1000 µM
CCCCCCCCCCCCCCCCCC(=O)O[C@H](COC(=O)CCCCCCCCCCC)COC(=O)CCCCCCCCCCCCCCC | – | – | – | > 100 µM | > 100 µM | > 100 µM | > 100 µM | > 100 µM | – | > 100 µM
COC(=O)C1=C2SCc3cccc(c3)CSC3=C(C(=O)OC)SC(=C(S2)S1)S3 | – | > 100 µM | > 100 µM | > 100 µM | > 100 µM | > 100 µM | > 100 µM | > 100 µM | > 100 µM | –
CC1=NN(c2ccc(S(=O)(=O)O)cc2)C2(C1)SCC(=O)N2c1nc2ccccc2s1 (centres undefined) | > 100 µM | > 100 µM | > 100 µM | > 100 µM | – | > 100 µM | > 100 µM | > 100 µM | > 100 µM | > 100 µM
O=c1nc2c(c(-c3ccccc3Cl)[nH]1)COC/C2=C\c1ccccc1Cl | 97.4 µM | > 100 µM | > 100 µM | > 100 µM | > 100 µM | > 100 µM | > 100 µM | > 100 µM | > 100 µM | –
Cc1ccc(-c2cc(N)n(-c3nc4c(c(=O)n(C)c(=O)n4C)n3C)n2)cc1 | > 100 µM | > 100 µM | > 100 µM | > 100 µM | > 100 µM | > 100 µM | – | > 100 µM | > 100 µM | > 100 µM
O=c1[nH]/c(=C/c2ccc(OCc3ccccc3)cn2)c(=O)[nH]/c1=C/c1ccc(O)cc1 | > 89.1 µM | 1.64 µM | > 46 µM | 8.9 µM | > 100 µM | > 69.6 µM | > 100 µM | > 100 µM | – | 8.67 µM
CN(C)Cc1cc(C(=O)/C=C/c2ccccc2Cl)cc(CN(C)C)c1O | 30.6 µM | 26.3 µM | – | 23.6 µM | 8.82 µM | 19.8 µM | 17 µM | 48.2 µM | 24.8 µM | 23.5 µM
O=C(CSc1nnc(Cc2ccccc2)o1)Nc1ccc([N+](=O)[O-])cc1 | – | – | > 100 µM | > 100 µM | > 100 µM | > 100 µM | – | > 100 µM | – | > 100 µM
CC(=O)OC1CC2C(C)(C)OC(=O)CC(OC(C)=O)[C@]2(C)C2CCC3(C)C(=CCC3[C@H]3COC(=O)C3)[C@]12C (some centres undefined) | > 100 µM | – | > 100 µM | > 100 µM | 65.8 µM | > 100 µM | > 100 µM | > 100 µM | – | > 100 µM
COc1cc(Nc2c3ccccc3nc3ccccc23)ccc1NS(C)(=O)=O | 23.1 µM | – | 23.6 µM | 9.32 µM | > 100 µM | > 100 µM | > 100 µM | 23.5 µM | – | 21.7 µM
O=C(NCCCCCCNCc1cccc2ccccc12)Nc1cccc2ccccc12 | > 100 µM | > 100 µM | > 100 µM | > 100 µM | > 100 µM | > 100 µM | > 100 µM | – | > 100 µM | > 100 µM
c1cc2nnnn2nc1N1CCCC1 | – | > 100 µM | > 100 µM | > 100 µM | > 100 µM | > 100 µM | > 100 µM | > 100 µM | > 100 µM | –
COC(=O)[C@@H]1CCCN1CCN1CCC[C@H]1C(=O)OC | – | > 100 µM | > 100 µM | > 100 µM | – | > 100 µM | > 100 µM | – | > 100 µM | > 100 µM
O=C(NC(Cc1ccc(I)cc1)C(=O)O)c1ccc(Br)cc1 (centres undefined) | 31 µM | – | > 100 µM | > 100 µM | > 100 µM | > 100 µM | > 100 µM | > 100 µM | – | > 100 µM

From PubChem BioAssay (NCI)
